{"source": "patent US8822217B2", "about": "“Method for cultivating tendon cells from pluripotent cells of mesenchymal origin” (Angewandte Biotechnologie GmbH, priority 2007, dated 2014)", "key": {"[1]": {"system": "pluripotent cells of mesenchymal origin", "test": "Western Blot analysis for the collagen production", "assay_type": "cell-based, human", "conditions": "for secretion of type I collagen (double band at 130 kD): vs untreated sample a; for cross-linking of the collagen (area of 400 kD): compared to sample b", "method": "(§1) In order to isolate pluripotent cells of mesenchymal origin, small pieces of Substantia spongiosa, biopsied from the human wing of ilium were digested at 37° C. in 2 ml of DMEM (Dulbecco's modified eagles medium with 4.5 g/l of glucose) with 2.5 mg/ml collagenase for 3 h. The cell pellet obtained from the digested pieces by multiple centrifugation was inoculated in a density of 200000 cells/cm^2 and was incubated for 24 h in DMEM with 10% foetal calf serum (FCS) and specifically at 37° C., 5% C02 and 100% humidity. One preparation gives a growth area of 60 to 180 cm^2. The culture medium was changed twice a week. Before the cells are confluent after six days, they are passaged in the usual way. The first passage is cultivated further under the standard conditions described until the logarithmic growth phase is reached after three days. The culture medium is then exchanged for a medium which was adjusted to an osmolarity of 360 mosmol/l with the aid of saccharose and, in addition to DMEM mixed with 10% FCS, contains 50 μg/ml of ascorbic acid-2-phosphate. The cells are incubated for four days in this culture medium. […] In addition, the secretion of type I collagen and its cross-linking increases. Following stimulation of the cells to enhanced collagen secretion under hyperosmolar conditions, they are cultivated in a standard culture medium for a further 12 h in order to then be investigated."}, "[2]": {"system": "pluripotent cells of mesenchymal origin", "test": "Cell morphology of the cell culture after treatment", "assay_type": "cell-based, human", "method": "as §1, with “Following stimulation of the cells to enhanced collagen secretion under hyperosmolar conditions, they are cultivated in a standard culture medium for a further 12 h in order to then be investigated.” left out"}, "[3]": {"conditions": "sample c: treatment under hyperosmolar conditions"}, "[4]": {"conditions": "sample c: treatment under hyperosmolar conditions, listed as ascorbic-2-phosphate"}}, "data": [{"smiles": "O=C1O[C@H]([C@@H](O)CO)C(O)=C1OP(=O)(O)O", "note": "[ascorbic acid-2-phosphate]", "values": [{"measurement": "secretion of type I collagen (double band at 130 kD)", "setting": "[1]; sample b: treatment without hyperosmolar conditions", "value": "significant increase"}, {"measurement": "resistance to digestion with pepsin", "setting": "[1]; [3]", "value": "more resistant to digestion with pepsin"}, {"measurement": "cross-linking of the collagen (area of 400 kD)", "setting": "[1]; [3]", "value": "increases"}, {"measurement": "cross-linking of the collagen (area of 400 kD)", "setting": "[1]; [4]", "value": "enhanced cross-linking"}, {"measurement": "secretion of type I collagen (double band at 130 kD)", "setting": "[1]; [3]", "value": "increases"}, {"measurement": "secretion of type I collagen (double band at 130 kD)", "setting": "[1]; [4]", "value": "significant increase"}, {"measurement": "change in the cellular phenotype", "setting": "[2]; 50 μg/ml, hyperosmolar conditions (360 mosmol/l with saccharose), four days", "value": "the cells become fibroblastic"}, {"measurement": "cell structure (FIG. 1 vs FIG. 2)", "setting": "[2]; treatment with ascorbic-2-phosphate, polygonal structure before treatment", "value": "fibroblastic structures"}]}]}
